Source: patent US8901118B2, “Compounds and methods for kinase modulation, and indications therefor” (Plexxikon Inc., priority 2010, dated 2014)

Tested on: BCR-FMS BaF3 cells
Experiment: Splenomegaly mouse model, BCR-FMS BaF3 cells
Format: in vivo
Settings: dosed once per day at 10 mg per kg
In short: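 Female nu/nu mice given 5×10^6 engineered BaF3 cells i.v. on day 1; compound in 1.0% Polysorbate 80/0.5% HPMC/2.5% DMSO dosed orally once (sometimes twice) daily, days 10-18. Spleens weighed 4 h after final dose; % spleen growth inhibition calculated versus vehicle control.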

Structure (SMILES): O=C(c1cnc(NC2CCC(F)(F)CC2)c(F)c1)c1c[nH]c2ncnc(NC3CC3)c12 [Compound P-4053, [4-(cyclopropylamino)-7H-pyrrolo[2,3-d]pyrimidin-5-yl]-[6-[(4,4-difluorocyclohexyl)amino]-5-fluoro-3-pyridyl]methanone]
- % spleen growth inhibition, Fms: 69%
